Results on 1 compound are retold here after patent US20250163072A1, “MACROCYCLIC COMPOUNDS FOR THE TREATMENT OF CANCER” (Hoffmann-La Roche Inc., priority 2021, published 2025).

Usually IC50 stands for the midpoint of a concentration-inhibition curve.

One test addresses KRAS G12C-BRAF complex (Homo sapiens (Human), UniProt P01116+P62937, G12C). The experiment in a line: KRAS G12C-BRAF NanoBit assay. The format is cell-based. The conditions noted are these: HEK293 cells, SmBit-KRAS G12C and BRAF RBD-LgBit, 3 hours incubation. The method in brief: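 HEK293 stable pool co-expressing SmBiT-KRAS G12C and BRAF RBD-LgBiT, exposed 3 h to compounds (16-point 3-fold dilution, top final 30 μM). Luminescence was read 20 min after Nano-Glo Live Cell substrate addition. A decrease versus DMSO control indicates disruption of the complex.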

The test system of the next test is NCI-H358 cells. The experiment in a line: Cell viability assay, NCI-H358. The conditions noted are these: Homo sapiens, NCI-H358, 72 hours, Cell Counting Kit-8, read-out: G12C IC50. The format is cell-based, human. The method in brief: (§1)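 Cells were plated at 5,000 (NCI-H358) or 2,000 (AGS, SW620) per well and incubated overnight. They were then treated with compound in 0.5% DMSO for 72 h. Viability was read with CCK-8 as OD450 minus OD650 after 2 h, and IC50 came from a 4-parameter sigmoidal fit.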
Background: Tetrazolium dyes change colour on reduction, which living cells bring about.

Test [1] deals with KRAS G12C in NCI-H358 cells. Briefly: pERK inhibition assay, NCI-H358. The conditions noted are these: Homo sapiens, 4 hours incubation. The format is cell-based, human. The method in brief:
(§2)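 NCI-H358, AGS and SW620 cells in RPMI-1640/10% FBS were plated overnight, then exposed to compound (0.5% DMSO final) for 4 h. After fixation and permeabilization, phospho-ERK was quantified by in-cell ELISA (HRP secondary, TMB, OD450); IC50 from a 4-parameter sigmoidal fit.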

For a further test, the system named is AGS cells. The experiment in a line: Cell viability assay, AGS. The test is classed as cell-based, human. The conditions noted are these: Homo sapiens, 72 hours, Cell Counting Kit-8, read-out: G12D IC50. In outline:
as §1

Another test deals with KRAS G12D in AGS cells. Briefly: pERK inhibition assay, AGS. The format is cell-based, human. The conditions noted are these: Homo sapiens, 4 hours incubation. The method in brief: as §2

KRAS G12C-BRAF complex, sequence (P01116-2 other isoform, or with tags, fused parts or gaps G12C): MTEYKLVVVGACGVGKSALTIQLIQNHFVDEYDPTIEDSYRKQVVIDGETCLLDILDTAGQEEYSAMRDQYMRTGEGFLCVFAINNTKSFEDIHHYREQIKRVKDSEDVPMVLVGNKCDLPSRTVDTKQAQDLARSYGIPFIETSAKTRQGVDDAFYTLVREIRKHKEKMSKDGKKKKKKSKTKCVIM
KRAS G12C-BRAF complex, sequence (P62937 whole entry): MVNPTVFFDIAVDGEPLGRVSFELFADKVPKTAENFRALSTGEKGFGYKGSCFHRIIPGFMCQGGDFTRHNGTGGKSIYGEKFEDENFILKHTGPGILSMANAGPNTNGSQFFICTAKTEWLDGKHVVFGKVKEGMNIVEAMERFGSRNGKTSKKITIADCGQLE

With `CO[C@@H](C)c1ncc(N2CCOCC2)cc1-c1c2c3cc(ccc3n1CC(F)(F)F)-c1csc(n1)C[C@H](NC(=O)[C@H](C(C)C)N(C)C(=O)[C@H]1CCN(C(=O)[C@H](F)Cl)C1)C(=O)N1CCC[C@H](N1)C(=O)OCC(C)(C)C2` (atropisomer, axis not shown; (M)) [Example 25, (3S)-1-[(2R)-2-chloro-2-fluoro-acetyl]-N-[(1S)-1-[[(7S,13S)-(20M)-20-[2-[(1S)-1-methoxyethyl]-5-morpholino-3-pyridyl]-17,17-dimethyl-8,14-dioxo-21-(2,2,2-trifluoroethyl)-15-oxa-4-thia-9,21,27,28-tetrazapentacyclo[17.5.2.12,5.19,13.022,26]octacosa-1(25),2,5(28),19,22(26),23-hexaen-7-yl]carbamoyl]-2-methyl-propyl]-N-methyl-pyrrolidine-3-carboxamide], the half-inhibitory concentration (IC50) was 20 nM against KRAS G12C-BRAF complex; < 0.6 nM in the test on NCI-H358 cells; 1 nM in test [1]; 94 nM in the test on AGS cells; 13 nM in the test with KRAS G12D in AGS cells.
